Patent publication EP3283473B1, “GHRELIN O-ACYL TRANSFERASE INHIBITORS” (Eli Lilly and Company, priority 2015, dated 2016)

Molecular target: T1, human GOAT (Homo sapiens, UniProt Q96T53)
T1 construct: His; made in house; host or cells: Sf9 insect cells (baculovirus, pAN51 vector); microsomal membrane preparation
T1 sequence (Q96T53 1-435): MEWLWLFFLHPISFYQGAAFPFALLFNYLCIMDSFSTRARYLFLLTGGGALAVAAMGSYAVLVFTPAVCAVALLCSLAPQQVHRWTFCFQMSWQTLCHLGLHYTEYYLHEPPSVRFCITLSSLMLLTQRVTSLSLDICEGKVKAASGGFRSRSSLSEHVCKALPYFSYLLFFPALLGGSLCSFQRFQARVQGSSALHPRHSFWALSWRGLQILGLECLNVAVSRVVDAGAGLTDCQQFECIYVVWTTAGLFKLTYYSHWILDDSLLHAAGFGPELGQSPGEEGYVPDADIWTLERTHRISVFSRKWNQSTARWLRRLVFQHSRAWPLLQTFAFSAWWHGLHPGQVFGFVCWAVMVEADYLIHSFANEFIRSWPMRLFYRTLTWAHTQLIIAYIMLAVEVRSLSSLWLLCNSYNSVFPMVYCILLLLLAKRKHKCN
Assay: In vitro cell free human GOAT enzymatic assay
Type: biochemical
Conditions: GOAT-His/sf9 membrane preparation
Method: Human GOAT gene (Accession number: NM_001100916) is subcloned to pAN51 baculoviral expression vector. Baculovirus stock is prepared following the Bac-to-Bac Protocol provided by the vendor, Invitrogen, California, USA. Five mililiters of human GOAT baculoviral stock are added to 500 mL Sf9 cells in HyQ SFX-Insect™ media (HyClone catalog number SH30278.02) at the density of 1 × 10^6 cells per milliliter in a 2 L Erlenmeyer flask. The flask with human GOAT gene infected Sf9 cells is put on a plate shaker at 120 rpm at 28 °C for 48 hours. After 48 hours incubation, cells are centrifuged at 1,000xg for 10 min at 4 °C. The cell pellets are collected and stored at -80 °C in a freezer until ready for further processing.
One gram cell pellets are suspended in 9 mL chilled homogenization buffer (50 mM Tris-HCl, 250 mM sucrose, adjusted to pH 7.5 and sterile filtered through 0.2 µm Millipore filter). The cell suspension is transferred to a Dounce glass homogenizer. Cell pellets are homogenized with 40 strokes on ice. The homogenate is centrifuged at 3,000 rpm in a Beckman swing bucket rotor at 4 °C for 10 min to remove unbroken cells. The supernatant is collected and centrifuged at 40,000 xg for 1 hour at 4 °C. The resulting membrane pellet is suspended in the homogenization buffer using a Dounce glass homogenizer and stored at -20 °C in the freezer for the assay. For long term storage of the human GOAT enzyme membrane preparation, the suspended membrane is stored in a -80 °C freezer.
Prepare test compounds in DMSO to make up a 0.2 mM stock solution. Serially dilute the stock solution in DMSO to obtain a ten-point dilution curve with final compound concentrations ranging from 10 µM to 0.5 nM in a 96-well round-bottom plate. Prepare enzyme and substrate solutions in assay buffer (0.02% TWEEN™-20 in 50 mM Tris, pH 7.5/250 mM sucrose/1 mg/mL BSA/10 mM EDTA). Add diluted compound (1 µL) to each well of row A to N of a corresponding low protein binding 384 well plate. Add human GOAT substrate mix (10 µL), consisting of human desacyl-ghrelin-biotin (CPC Scientific Inc., 6.0 µM final), octanoyl-coenzyme A (CoA) (Sigma, 60 µM final) and an AG specific antibody (WO 2006/091381)(1.0 µg/mL final), to the compounds. Add GOAT-His/sf9 enzyme preparation, that has been prepared in assay buffer (9 µL), to each well of the plate containing substrate and test compounds resulting in a final concentration of 0.01 µg/mL to initiate the reaction. Incubate the mixture for 1 hour at RT on a gently rotating oscillator. Add 4M guanidine hydrochloride (20 µL) to all wells, mix, and incubate for 3 hours to stop the reaction.
Prepare ELISA plates (STREPTAVIDIN SPECTRAPLATE™ 384, Perkin Elmer) by blocking with 2% Heat-Inactivated FBS in PBS (40 µL) (Invitrogen) blocking buffer for 3 hours. Aspirate the blocking buffer from ELISA plate and add blocking buffer (23 µL) to columns 1-24, rows A-N. Reserve rows O and P for the acylghrelin standard curve. Add the reaction mix (2 µL) to the ELISA plates. Prepare a 10 point standard curve (biotin-labeled octanoyl-ghrelin) by serial 2X dilution in blocking buffer containing 0.2M Guanidine hydrochloride starting at 2.5 pM. Incubate the reaction mixture or biotin-labeled AG standard in the ELISA plate overnight at 4 °C. The following day, wash the plate 3× with wash buffer (0.1% TWEEN™-20/PBS, 100 µL per well in each wash cycle). […] Read plates at 450 nm using an ENVISION® Multilabel plate reader. […]

IC20: 69.5 ± 0.6 nM
Compound: Cc1nc(C(F)(F)F)nc(N)c1CCC1CCN(C(=O)[C@H](C)NC(=O)c2ccnn2C)CC1 [Example 2, N-[(1S)-2-[4-[2-[4-Amino-6-methyl-2-(trifluoromethyl)pyrimidin-5-yl]ethyl]-1-piperidyl]-1-methyl-2-oxo-ethyl]-2-methyl-pyrazole-3-carboxamide]
